The nature of this test: Eu(III) titration, time-resolved luminescence, determination of Eu(III) dissociation constants. The test is classed as binding. The following applies: 5 micromolar peptide, 30° C., 50 mM HEPES pH 7.5, 100 mM NaCl; averages of three separate experiments. On the procedure:
The luminescence experiments were conducted as follows. Time-resolved emission measurements were made with a CLARIOstar® spectrofluorimeter. The spectra were recorded between 410 and 700 nm, and all measurements were made using the following settings: excitation wavelength 360 nm; delay time 0.4 ms; stepwidth 1.0 nm; emission bandwidth 8 nm; gain: 3000; focal height […]; 20 flashes per well. All of the spectra were corrected for background luminescence by subtracting a blank scan of the solvent solution.
Determination of Eu(III) dissociation constants (KD). Eu(III) titrations were performed at 30° C. in a buffer containing 50 mM HEPES buffer, pH 7.5, 100 mM NaCl, and 5 micromolar of the of the phosphopeptide Sox-P (5 micromolar) or the corresponding unphosphorylated biosensor Sox-OH (5 micromolar) in a total volume of 200 microliters. Aliquots of EuCl3 stock solutions were added (for the final EuCl3 concentration in the well to be in the range of approximately 2.5-6000 micromolar) and the data was recorded in the fluorometer. Data were fit with the program GraFit 7. The reported values are averages of three separate experiments.

Square brackets hold non-standard residues; d marks the D form. Ends that are not written are not given here. * marks the point of attachment. Sox = hydroxyquinoline on cysteine, CN(C)S(=O)(=O)c1ccc(O)c2nc(C*)ccc12; pT = C[C@@H](OP(=O)(O)O)[C@H](N)C(=O)O

Broadly, the Kd is the equilibrium constant for the complex coming apart. Low readings indicate tighter binding, high ones weaker binding. “LVEPLT*PC(Sox)GEA (LVEPL[pT]PC(Sox)GEA) [Sox-P, phosphopeptide with Sox hydroxyquinoline attached to the S of the cysteine]” displayed a Kd of 18.4 µM. In the case of “LVEPLTPC(Sox)GEA [Sox-OH, unphosphorylated biosensor peptide with Sox hydroxyquinoline attached to the S of the cysteine]”, the Kd is 1570 µM.

Source of the values: US10799603B2, “Kinase and/or phosphatase sensing via hydroxyquinoline-sensitized chelates” (Massachusetts Institute of Technology, priority 2018, dated 2020).
